27 compounds from patent publication US9079919B2 (HOFFMANN-LA ROCHE INC., priority 2011, dated 2015) can be followed below.

T1 sequence (P56817 46-501): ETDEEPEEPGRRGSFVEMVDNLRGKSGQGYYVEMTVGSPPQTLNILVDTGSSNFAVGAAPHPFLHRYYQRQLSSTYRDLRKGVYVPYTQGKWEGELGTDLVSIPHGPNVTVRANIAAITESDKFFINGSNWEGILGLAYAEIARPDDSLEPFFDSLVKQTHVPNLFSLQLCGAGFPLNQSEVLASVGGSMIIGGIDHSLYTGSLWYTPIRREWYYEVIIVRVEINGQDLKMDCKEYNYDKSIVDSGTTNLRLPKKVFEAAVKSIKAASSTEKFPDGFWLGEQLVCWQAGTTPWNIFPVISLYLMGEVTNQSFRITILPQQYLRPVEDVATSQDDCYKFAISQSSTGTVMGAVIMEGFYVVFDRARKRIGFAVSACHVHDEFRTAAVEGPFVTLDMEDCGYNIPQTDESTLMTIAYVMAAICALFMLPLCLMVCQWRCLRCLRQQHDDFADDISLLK

This experiment concerns the target T1, BACE1 (Homo sapiens, UniProt P56817).
T1 construct: Human HEK293 cells which are stably transfected with a vector expressing a cDNA of the human APP wt gene (APP695); endogenous in cells; host or cells: HEK293 cells stably transfected with human APP695 (wt)
Kind of experiment: Cellular Aβ-lowering assay a) (Aβ40 ELISA). The format is cell-based. As to conditions: cellular assay a): HEK293 cells expressing human APP695, Aβ40 in supernatant by ELISA after 18-20 hrs; read-out: BACE1 cell act. Aβ40 IC50. How it is done: a) Human HEK293 cells which are stably transfected with a vector expressing a cDNA of the human APP wt gene (APP695) were used to assess the potency of the compounds in a cellular assay. The cells were seeded in 96-well microtiter plates in cell culture medium (Iscove, plus 10% (v/v) fetal bovine serum, glutamine, penicillin/streptomycin) to about 80% confluence and the compounds were added at a 10× concentration in 1/10 volume of medium without FCS containing 8% DMSO (final concentration of DMSO was kept at 0.8% v/v). After 18-20 hrs incubation at 37° C. and 5% CO2 in a humidified incubator the culture supernatant was harvested for the determination of Aβ40 concentrations. 96 well ELISA plates (e.g., Nunc MaxiSorb) were coated with monoclonal antibody which specifically recognize the C-terminal end of Aβ40 (Brockhaus et al., NeuroReport 9, 1481-1486; 1998). After blocking of non-specific binding sites with e.g. 1% BSA and washing, the culture supernatants were added in suitable dilutions together with a horseradish peroxidase-coupled Aβ detection antibody (e.g., antibody 4G8, Senetek, Maryland Heights, Mo.) and incubated for 5 to 7 hrs. Subsequently the wells of the microtiter plate were washed extensively with Tris-buffered saline containing 0.05% Tween 20 and the assay was developed with tetramethylbenzidine/H2O2 in citric acid buffer. After stopping the reaction with one volume of 1N H2SO4 the reaction was measured in an ELISA reader at 450 nm wavelength. The concentrations of Aβ in the culture supernatants were calculated from a standard curve obtained with known amounts of pure Aβ peptide.
(In general: ELISA stands for enzyme-linked immunosorbent assay.)
For orientation: IC50 means the concentration needed to halve the response being measured. For the compound `NC1=N[C@@]2(CC(c3ccccc3)Oc3ccc(NC(=O)c4ccc(F)cn4)cc32)C(F)(F)CO1` (single isomer, unassigned) [Example 38, N-((2R or 2S,4R)-2′-Amino-5′,5′-difluoro-2-phenyl-5′,6′-dihydrospiro[chroman-4,4′-[1,3]oxazine]-6-yl)-5-fluoropicolinamide], the IC50 amounted to 510 nM.

In the case of `N#Cc1cncc(-c2ccc3c(c2)[C@@]2(CC(c4ccccc4)O3)N=C(N)OCC2(F)F)c1` (mixture of isomers) [Example 24, 5-((2RS,4R)-2′-amino-5′,5′-difluoro-2-phenyl-5′,6′-dihydrospiro[chroman-4,4′-[1,3]oxazine]-6-yl)nicotinonitrile], the IC50 amounted to 98 nM. As for `NC1=N[C@@]2(CCc3ccc(NC(=O)c4ccc(Cl)cn4)cc32)C(F)(F)CO1` [Example 16, (R)—N-(2′-Amino-5′,5′-difluoro-2,3,5′,6′-tetrahydrospiro[indene-1,4′-[1,3]oxazine]-6-yl)-5-chloropicolinamide], the IC50 was 2490 nM. As for `N#Cc1ccc(C(=O)Nc2ccc3c(c2)[C@@]2(CCS3(=O)=O)N=C(N)OCC2(F)F)nc1` [Example 46, N-[(4R)-2-amino-5,5-difluoro-1′,1′-dioxido-2′,3′,5,6-tetrahydrospiro[1,3-oxazine-4,4′-thiochromen]-6′-yl]-5-cyanoopyridine-2-carboxamide], the figure is 3400 nM; as for `NC1=N[C@@]2(CCOc3ccc(-c4cncnc4)cc32)C(F)(F)CO1` [Example 21, (R)-5′,5′-difluoro-6-(pyrimidin-5-yl)-5′,6′-dihydrospiro[chroman-4,4′-[1,3]oxazin]-2′-amine], 5140 nM. Take `N#Cc1ccc(C(=O)Nc2ccc3c(c2)[C@@]2(CC(c4ccccc4)O3)N=C(N)OCC2(F)F)nc1` (single isomer, unassigned) [Example 37, N-((2R or 2S,4R)-2′-Amino-5′,5′-difluoro-2-phenyl-5′,6′-dihydrospiro[chroman-4,4′-[1,3]oxazine]-6-yl)-5-cyanopicolinamide]: the IC50 turned out to be 70 nM. As for `NC1=N[C@@]2(CC(c3ccccc3)Oc3ccc(-c4cncnc4)cc32)C(F)(F)COC1` (mixture of isomers) [Example 58, (2RS,4R)-6′,6′-difluoro-2-phenyl-6-(pyrimidin-5-yl)-6′,7′-dihydro-2′H-spiro[chroman-4,5′-[1,4]oxazepin]-3′-amine], the figure is 1290 nM. `NC1=N[C@@]2(CC(c3ccccc3)Oc3ccc(-c4cc(Cl)cc(Cl)c4)cc32)C(F)(F)COC1` (mixture of isomers) [Example 57, (2RS,4R)-6-(3,5-Dichlorophenyl)-6′,6′-difluoro-2-phenyl-6′,7′-dihydro-2′H-spiro[chroman-4,5′-[1,4]oxazepin]-3′-amine]: the IC50 was determined as 6280 nM. Turning to `NC1=N[C@@]2(CCC(F)(F)c3ccc(-c4cncc(Cl)c4)cc32)C(F)(F)CO1` [Example 3, (R)-7-(5-Chloropyridin-3-yl)-4,4,5′,5′-tetrafluoro-3,4,5′,6′-tetrahydro-2H-spiro[naphthalene-1,4′-[1,3]oxazin]-2′-amine], the IC50 worked out at 2550 nM. `NC1=N[C@@]2(CCc3ccc(NC(=O)c4ccc(C(F)(F)F)cn4)cc32)C(F)(F)CO1` [Example 18, (R)—N-(2′-Amino-5′,5′-difluoro-2,3,5′,6′-tetrahydrospiro[indene-1,4′-[1,3]oxazine]-6-yl)-5-(trifluoromethyl)picolinamide]: the IC50 turned out to be 660 nM. As for `NC1=N[C@@]2(CC(c3ccccc3)Oc3ccc(NC(=O)c4ccc(C(F)(F)F)cn4)cc32)C(F)(F)CO1` (single isomer, unassigned) [Example 39, N-((2R or 2S,4R)-2′-Amino-5′,5′-difluoro-2-phenyl-5′,6′-dihydrospiro[chroman-4,4′-[1,3]oxazine]-6-yl)-5-(trifluoromethyl)picolinamide], the figure is 280 nM; as for `NC1=N[C@@]2(CC(c3ccccc3)Oc3ccc(-c4cncc(Cl)c4)cc32)C(F)(F)CO1` (mixture of isomers) [Example 23, (2RS,4R)-6-(5-chloropyridin-3-yl)-5′,5′-difluoro-2-phenyl-5′,6′-dihydrospiro[chroman-4,4′-[1,3]oxazin]-2′-amine], 420 nM.

Consider `N#Cc1ccc(C(=O)Nc2ccc3c(c2)[C@@]2(CCO3)N=C(N)COCC2(F)F)nc1` [Example 49, (R)—N-(3′-Amino-6′,6′-difluoro-6′,7′-dihydro-2′H-spiro[chroman-4,5′-[1,4]oxazepine]-6-yl)-5-cyanopicolinamide], for which the IC50 worked out at 830 nM. As for `N#Cc1cncc(-c2ccc3c(c2)[C@@]2(CC(c4ccccc4)O3)N=C(N)COCC2(F)F)c1` (mixture of isomers) [Example 59, 5-((2RS,4R)-3′-amino-6′,6′-difluoro-2-phenyl-6′,7′-dihydro-2′H-spiro[chroman-4,5′-[1,4]oxazepine]-6-yl)nicotinonitrile], the figure is 340 nM; as for `NC1=N[C@@]2(CC(c3ccccc3)Oc3ccc(-c4cncc(Cl)c4)cc32)C(F)(F)COC1` (mixture of isomers) [Example 56, (2RS,4R)-6-(5-Chloropyridin-3-yl)-6′,6′-difluoro-2-phenyl-6′,7′-dihydro-2′H-spiro[chroman-4,5′-[1,4]oxazepin]-3′-amine], 2100 nM. `CC1(C)C[C@@]2(N=C(N)OCC2(F)F)c2cc(-c3cncc(Cl)c3)ccc2O1` [Example 28, (R)-6-(5-chloropyridin-3-yl)-5′,5′-difluoro-2,2-dimethyl-5′,6′-dihydrospiro[chroman-4,4′-[1,3]oxazin]-2′-amine]: the IC50 came out at 2530 nM. As for `CC1(C)C[C@@]2(N=C(N)OCC2(F)F)c2cc(NC(=O)c3ccc(Cl)cn3)ccc2O1` [Example 40, (R)—N-(2′-Amino-5′,5′-difluoro-2,2-dimethyl-5′,6′-dihydrospiro[chroman-4,4′-[1,3]oxazine]-6-yl)-5-chloropicolinamide], the figure is 2260 nM; as for `NC1=N[C@@]2(CCOc3ccc(NC(=O)c4[nH]ncc4Cl)cc32)C(F)(F)CO1` [Example 35], 1250 nM.

Regarding `NC1=N[C@@]2(CCCc3ccc(NC(=O)c4ccc(Cl)cn4)cc32)C(F)(F)CO1` [Example 12, (R)—N-(2′-Amino-5′,5′-difluoro-3,4,5′,6′-tetrahydro-2H-spiro[naphthalene-1,4′-[1,3]oxazine]-7-yl)-5-chloropicolinamide], the IC50 stood at 22 nM. For `N#Cc1cccc(-c2ccc3c(c2)[C@@]2(CC(c4ccccc4)O3)N=C(N)COCC2(F)F)c1` (mixture of isomers) [Example 60, 3-((2RS,4R)-3′-amino-6′,6′-difluoro-2-phenyl-6′,7′-dihydro-2′H-spiro[chroman-4,5′-[1,4]oxazepine]-6-yl)benzonitrile], the IC50 was determined as 1040 nM.

In the case of `N#Cc1cncc(-c2ccc3c(c2)[C@@]2(CCC3(F)F)N=C(N)OCC2(F)F)c1` [Example 5, (R)-5-(2′-Amino-4,4,5′,5′-tetrafluoro-3,4,5′,6′-tetrahydro-2H-spiro[naphthalene-1,4′-[1,3]oxazine]-7-yl)nicotinonitrile], the IC50 was determined as 2770 nM.

On to `NC1=N[C@@]2(CCOc3ccc(NC(=O)c4ccc(Cl)cn4)cc32)C(F)(F)COC1` [Example 50, (R)—N-(3′-Amino-6′,6′-difluoro-6′,7′-dihydro-2′H-spiro[chroman-4,5′-[1,4]oxazepine]-6-yl)-5-chloropicolinamide], for which the IC50 was 2130 nM. As to `NC1=N[C@@]2(CC(c3ccccc3)Oc3ccc(NC(=O)c4ccc(Cl)cn4)cc32)C(F)(F)CO1` (single isomer, unassigned) [Example 36, N-((2R or 2S,4R)-2′-Amino-5′,5′-difluoro-2-phenyl-5′,6′-dihydrospiro[chroman-4,4′-[1,3]oxazine]-6-yl)-5-chloropicolinamide], the IC50 is 195 nM.

As to `N#Cc1ccc(C(=O)Nc2ccc3c(c2)[C@@]2(CCC3)N=C(N)COCC2(F)F)nc1` [Example 47, (R)—N-(3′-Amino-6′,6′-difluoro-3,4,6′,7′-tetrahydro-2H,2′H-spiro[naphthalene-1,5′-[1,4]oxazepine]-7-yl)-5-cyanopicolinamide], the IC50 was found to be 240 nM. With `NC1=N[C@@]2(CCc3ccc(-c4cncnc4)cc32)C(F)(F)CO1` [Example 7, (R)-5′,5′-Difluoro-6-(pyrimidin-5-yl)-2,3,5′,6′-tetrahydrospiro[indene-1,4′-[1,3]oxazin]-2′-amine], the half-inhibitory concentration (IC50) stood at 2370 nM.

Regarding `N#Cc1ccc(C(=O)Nc2ccc3c(c2)[C@@]2(CC(c4ccccc4)O3)N=C(N)COCC2(F)F)nc1` (mixture of isomers) [Example 53, N-((2RS,4R)-3′-Amino-6′,6′-difluoro-2-phenyl-6′,7′-dihydro-2′H-spiro[chroman-4,5′-[1,4]oxazepine]-6-yl)-5-cyanopicolinamide], the IC50 is 470 nM. As for `NC1=N[C@@]2(CC(c3ccccc3)Oc3ccc(-c4cncnc4)cc32)C(F)(F)CO1` (mixture of isomers) [Example 25, (2RS,4R)-5′,5′-difluoro-2-phenyl-6-(pyrimidin-5-yl)-5′,6′-dihydrospiro[chroman-4,4′-[1,3]oxazin]-2′-amine], the figure is 1580 nM.
